Experimental data from publication PMC6505943, “Identification of a potential allosteric site of Golgi α-mannosidase II using computer-aided drug design” (PLoS ONE, 2019).
“Also recorded” adds a separate entry of the source. Where two headings read alike, the source gives them in different places.

Key:
[1] = molecular target: T1, Golgi α-mannosidase II from Drosophila melanogaster (dGMII) (Drosophila melanogaster, UniProt Q24451); experiment: fluorometric enzyme inhibition assay with dGMII (4-MU-Man substrate); format: biochemical; conditions: for inhibition at 300 µM: at 300 μM compound, 1 mM 4-MU-Man, pH 5.75
T1 construct: His tag; made in house; host or cells: Drosophila Schneider 2 (S2) cells, secreted into the medium
T1 sequence (Q24451 76-1108 limits assumed): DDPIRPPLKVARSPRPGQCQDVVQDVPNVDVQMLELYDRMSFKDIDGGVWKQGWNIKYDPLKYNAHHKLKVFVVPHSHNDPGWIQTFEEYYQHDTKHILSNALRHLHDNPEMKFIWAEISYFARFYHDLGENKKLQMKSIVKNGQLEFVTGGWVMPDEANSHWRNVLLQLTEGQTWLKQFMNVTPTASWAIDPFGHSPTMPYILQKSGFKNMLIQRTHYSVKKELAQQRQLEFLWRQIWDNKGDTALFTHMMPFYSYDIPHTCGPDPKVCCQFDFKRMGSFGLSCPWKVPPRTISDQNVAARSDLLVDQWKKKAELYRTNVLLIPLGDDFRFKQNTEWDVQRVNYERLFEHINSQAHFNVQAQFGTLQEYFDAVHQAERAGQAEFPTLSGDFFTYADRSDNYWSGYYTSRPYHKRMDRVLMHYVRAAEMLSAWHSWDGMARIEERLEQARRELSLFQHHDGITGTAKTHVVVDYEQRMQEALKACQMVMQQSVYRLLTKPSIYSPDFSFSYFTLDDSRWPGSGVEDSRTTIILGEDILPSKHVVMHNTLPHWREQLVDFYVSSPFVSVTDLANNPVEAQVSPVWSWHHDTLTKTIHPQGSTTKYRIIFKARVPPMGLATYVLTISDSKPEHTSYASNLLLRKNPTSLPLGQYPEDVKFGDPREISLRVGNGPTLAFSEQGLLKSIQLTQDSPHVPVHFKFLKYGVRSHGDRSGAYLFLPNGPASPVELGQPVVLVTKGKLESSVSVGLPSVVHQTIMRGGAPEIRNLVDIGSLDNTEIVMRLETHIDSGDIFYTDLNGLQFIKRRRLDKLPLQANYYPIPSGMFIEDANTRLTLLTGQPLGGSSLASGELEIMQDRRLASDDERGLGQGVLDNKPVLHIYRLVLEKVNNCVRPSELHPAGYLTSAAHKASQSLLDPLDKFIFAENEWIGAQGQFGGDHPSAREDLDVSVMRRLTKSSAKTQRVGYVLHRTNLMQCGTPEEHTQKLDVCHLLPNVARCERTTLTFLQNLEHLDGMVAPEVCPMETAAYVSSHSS
Procedure: (§1) Inhibition assays with dGMII were performed at pH 5.75 in MES buffer (40 mM), supplemented with bovine serum albumin 1.1% (0.1% final concentration in MES buffer) and ZnSO4-solution 1.1% (0.1% final concentration in MES buffer). The recombinantly expressed and purified enzyme was added to a final concentration of 0.002 mg/mL per well. 4-Methylumbellifer-7-yl-α-D-mannopyranoside (4-MU-Man) was synthesized (S1 File and S2 Fig) and used as substrate with a final concentration of 1 mM per well. The total reaction volume was 50 μL and the mixture was incubated at 37°C for five minutes. […] The release of 4-methylumbelliferone was measured for 15 min by fluorescence spectroscopy using Greiner 96 Flat Bottom Black Polystyrol plates and a Tecan Reader Infinite F200 PRO equipped with a filter system (355 nm excitation and 485 nm emission). Assays in order to investigate the selectivity of compounds between different mannosidases were carried out on JBM. Assays concerning the selectivity between the desired mannosidase inhibition and a potential glucosidase inhibition were carried out on the β-glucosidase of sweet almonds using 4-methylumbelliferyl-β-D-glucopyranoside (4-MU-Glc) as substrate. The substrate 4-MU-Glc was synthesized as described in the supplementary information (S1 File and S3 Fig). JBM and β-glucosidase from sweet almonds were purchased from Sigma Aldrich. The enzyme β-glucosidase from sweet almonds was diluted in citrate buffer in order to obtain a concentration of 0.04 mg/mL. The inhibition assays were carried out at a pH of 5.0 in citrate buffer (20 mM). The substrate concentration was chosen to be 1 mM per well in accordance with the results of several KM value determinations since this concentration ensures good enzyme activity (KM = 1.9 ± 0.1 mM). Inhibition assays JBM were performed in the same buffer as for dGMII. The final concentration of the enzyme per well was 0.003 mg/ml. The substrate 4-MU-Man was used with a final concentration of 0.4 mM per well. The conducted assays with JBM and the β-glucosidase from sweet almonds were performed as described for dGMII.
The most promising compounds according to the molecular modeling studies were tested at 300 μM final concentration except for compound 24 which was tested at 100 μM per well due to the small amount available. […] The inhibition was calculated with the following Eq (2): Inhibition(%)=(1−activity(withinhibitor)/activity(withoutinhibitor))∙100 (2)
KM values were calculated using the Michaelis-Menten kinetics Eq (3) v=vmax[S]/KM+[S] (3) whereby vmax is the maximal velocity, [S] the substrate concentration and KM the substrate concentration yielding a velocity of vmax/2.
IC50 values were calculated using following Eq (4): y=ymax−ymin/1+([I]/IC50)^S+ymin (4) whereby ymax is defined as 100% enzyme activity, ymin as 0% enzyme activity, s is defined as the slope of the linear part of the curves (Hill coefficient), and [I] represents the inhibitor concentration. For the KM value determination, substrate concentrations ranging from 0.4 to 8.0 mM for dGMII and from 0.008 to 1.6 mM for JBM were used. For the IC50 determination of swainsonine, concentrations ranging from 6 to 120 nM were applied. […] The program GraFit (5.0.13, Erithacus Software, Horley, Surrey, UK (2006)) was used to calculate the IC50 values.

[2] = tested on: β-glucosidase of sweet almonds; experiment: selectivity enzyme assay with β-glucosidase of sweet almonds (4-MU-Glc substrate); format: biochemical
Procedure: as §1, with “The enzyme β-glucosidase from sweet almonds was diluted in citrate buffer in order to obtain a concentration of 0.04 mg/mL. The inhibition assays were carried out at a pH of 5.0 in citrate buffer (20 mM). The substrate concentration was chosen to be 1 mM per well in accordance with the results of several KM value determinations since this concentration ensures good enzyme activity (KM = 1.9 ± 0.1 mM). Inhibition assays JBM were performed in the same buffer as for dGMII. The final concentration of the enzyme per well was 0.003 mg/ml. The substrate 4-MU-Man was used with a final concentration of 0.4 mM per well. The conducted assays with JBM and the β-glucosidase from sweet almonds were performed as described for dGMII.” left out

[3] = molecular target: T2, JBM (Canavalia ensiformis, UniProt C0HJB3); experiment: selectivity enzyme assay with JBM (4-MU-Man substrate); format: biochemical, Jack bean
T2 construct: purchased Sigma Aldrich
T2 sequence (C0HJB3 1-562 limits assumed): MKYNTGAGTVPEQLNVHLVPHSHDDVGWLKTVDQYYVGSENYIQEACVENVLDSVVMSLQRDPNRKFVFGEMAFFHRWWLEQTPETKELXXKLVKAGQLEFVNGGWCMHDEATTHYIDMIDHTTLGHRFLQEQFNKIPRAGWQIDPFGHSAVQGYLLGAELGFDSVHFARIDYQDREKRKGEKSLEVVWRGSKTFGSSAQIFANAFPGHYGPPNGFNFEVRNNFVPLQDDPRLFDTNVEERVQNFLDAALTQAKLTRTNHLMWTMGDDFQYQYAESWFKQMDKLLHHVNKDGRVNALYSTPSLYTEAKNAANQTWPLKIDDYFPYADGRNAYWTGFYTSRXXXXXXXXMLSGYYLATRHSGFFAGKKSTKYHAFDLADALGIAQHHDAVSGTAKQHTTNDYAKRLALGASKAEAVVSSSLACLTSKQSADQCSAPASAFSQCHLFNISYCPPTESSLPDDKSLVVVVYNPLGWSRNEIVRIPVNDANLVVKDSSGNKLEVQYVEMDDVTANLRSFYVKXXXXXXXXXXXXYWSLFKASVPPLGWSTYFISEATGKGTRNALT
T2 sequence (C0HJB3 563-981 limits assumed): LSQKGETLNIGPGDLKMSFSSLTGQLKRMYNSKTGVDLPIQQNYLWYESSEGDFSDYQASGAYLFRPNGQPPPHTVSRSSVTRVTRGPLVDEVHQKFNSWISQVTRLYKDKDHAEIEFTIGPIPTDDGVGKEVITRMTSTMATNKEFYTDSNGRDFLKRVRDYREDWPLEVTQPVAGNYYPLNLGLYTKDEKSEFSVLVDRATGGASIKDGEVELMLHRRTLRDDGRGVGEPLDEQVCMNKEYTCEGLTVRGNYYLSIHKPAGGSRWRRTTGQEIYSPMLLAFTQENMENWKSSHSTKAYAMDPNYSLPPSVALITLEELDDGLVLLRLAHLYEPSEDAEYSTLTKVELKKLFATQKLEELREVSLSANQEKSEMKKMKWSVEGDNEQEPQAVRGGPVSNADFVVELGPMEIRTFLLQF
Procedure: Inhibition assays with dGMII were performed at pH 5.75 in MES buffer (40 mM), supplemented with bovine serum albumin 1.1% (0.1% final concentration in MES buffer) and ZnSO4-solution 1.1% (0.1% final concentration in MES buffer). The recombinantly expressed and purified enzyme was added to a final concentration of 0.002 mg/mL per well. 4-Methylumbellifer-7-yl-α-D-mannopyranoside (4-MU-Man) was synthesized (S1 File and S2 Fig) and used as substrate with a final concentration of 1 mM per well. The total reaction volume was 50 μL and the mixture was incubated at 37°C for five minutes. […] The release of 4-methylumbelliferone was measured for 15 min by fluorescence spectroscopy using Greiner 96 Flat Bottom Black Polystyrol plates and a Tecan Reader Infinite F200 PRO equipped with a filter system (355 nm excitation and 485 nm emission). Assays in order to investigate the selectivity of compounds between different mannosidases were carried out on JBM. Assays concerning the selectivity between the desired mannosidase inhibition and a potential glucosidase inhibition were carried out on the β-glucosidase of sweet almonds using 4-methylumbelliferyl-β-D-glucopyranoside (4-MU-Glc) as substrate. The substrate 4-MU-Glc was synthesized as described in the supplementary information (S1 File and S3 Fig). […]
KM values were calculated using the Michaelis-Menten kinetics Eq (3) v=vmax[S]/KM+[S] […]

O[C@H]1[C@H]2[C@H](O)CCCN2C[C@H]1O [swainsonine, reference compound]
IC50 [1]: 0.034 ± 0.0014 µM

Cc1cc(=O)oc2cc(O[C@@H]3O[C@H](CO)[C@@H](O)[C@H](O)[C@H]3O)ccc12 [4-MU-Glc, 4-methylumbelliferyl-β-D-glucopyranoside, reference compound]
Km ([2]; substrate of β-glucosidase from sweet almonds): 1900 ± 100 µM

O=C(Cc1ccn[nH]1)NC[C@@H](O)c1cc2ccccc2s1 [Compound 20]
inhibition at 300 µM [1]: ~41%

Cc1cc(=O)oc2cc(O[C@H]3O[C@H](CO)[C@@H](O)[C@H](O)[C@@H]3O)ccc12 [4-MU-Man, 4-Methylumbellifer-7-yl-α-D-mannopyranoside, reference compound]
Km ([1]; substrate of dGMII): 3600 ± 300 µM
Km ([3]; substrate of JBM): 600 ± 60 µM

N#CC(C(=O)C1CCCCN1C(=O)c1cccnc1)c1ccccn1 (centres unmarked) [Compound 18]
mode of inhibition ([1]; IC50 at varying substrate concentrations 0.1 to 3 mM): non-competitive inhibition
inhibition at 300 µM [1]: ~46%
ligand efficiency ([1]; based on the inhibitory activity observed in the fluorometric assay): approximately 0.20 kcal/mol
IC50 ([1]; dGMII, 4-MU-Man substrate, read-out: IC50): 217 ± 44.3 µM
inhibition of the β-glucosidase of sweet almonds ([2]; at 300 μM, 1 mM 4-MU-Glc, pH 5.0): no significant inhibition; also recorded: did not exhibit significant inhibition
inhibition at 300 µM ([3]; at 300 μM, 0.4 mM 4-MU-Man): 70%
